Assay [1] has as its system field violet. Description: Test D pre-/postemergence herbicide test. Conditions: for Plant response rating: Field Violet, scale 0 to 100; for Plant response rating, Field Violet: scale 0 to 100 (0 no effect, 100 complete control). The class given is in vivo, Viola arvensis. The text has this:
(§1) Seeds of plant species selected from bluegrass (annual bluegrass, Poa annua), blackgrass (Alopecurus myosuroides), canarygrass (littleseed canarygrass, Phalaris minor), chickweed (common chickweed, Stellaria media), galium (catchweed bedstraw, Galium aparine), bromegrass, downy (downy bromegrass, Bromus tectorum), field poppy (Papaver rhoeas), field violet (Viola arvensis), foxtail, green (green foxtail, Setaria viridis), deadnettle (henbit deadnettle, Lamium amplexicaule), ryegrass, Italian (Italian ryegrass, Lolium multiflorum), kochia (Kochia scoparia), lambsquarters (Chenopodium album), oilseed rape (Brassica napus), pigweed (Amaranthus retroflexus), chamomile (scentless chamomile, Matricaria inodora), Russian thistle (Salsola kali), speedwell (bird's-eye speedwell, Veronica persica), barley, spring (spring barley, Hordeum vulgare), wheat, spring (spring wheat, Triticum aestivum), buckwheat, wild (wild buckwheat, Polygonum convolvulus), mustard, wild (wild mustard, Sinapis arvensis), oat, wild (wild oat, Avena fatua), radish, wild (wild radish, Raphanus raphanistrum), […]), barley, winter (winter barley, Hordeum vulgare), and wheat, winter (winter wheat, Triticum aestivum) were planted into a silt loam soil and treated preemergence with test chemicals formulated in a non-phytotoxic solvent mixture which included a surfactant. At the same time, these species were planted in pots containing Redi-Earth® planting medium (Scotts Company, 14111 Scottslawn Road, Marysville, Ohio 43041) comprising spaghnum peat moss, vermiculite, wetting agent and starter nutrients and treated with postemergence applications of the test chemicals formulated in the same manner. Plants ranged in height from 2 to 18 cm (1- to 4-leaf stage). Treated plants and controls were maintained in a controlled growth environment for 7 to 21 days after which time all species were compared to controls and visually evaluated. Plant response ratings, summarized in Table D, are based on a scale of 0 to 100 where 0 is no effect and 100 is complete control. A dash (-) response means no test result.

The test system of assay [2] is blackgrass. Nature of the assay: Test D pre-/postemergence herbicide test. Type of assay: in vivo, Alopecurus myosuroides. Conditions: for Plant response rating: Blackgrass, scale 0 to 100; for Plant response rating, Blackgrass: scale 0 to 100 (0 no effect, 100 complete control).
Description: as §1

The test system of assay [3] is rice, transplanted. Nature of the assay: Test F flood (paddy) test. Type of assay: in vivo, Oryza sativa cv. Japonica—M202. Particulars: 21 d, scale 0-100. The text has this:
Three plastic pots (ca. 16-cm diameter) per rate were partially filled with sterilized Tama silt loam soil comprising a 35:50:15 ratio of sand, silt and clay and 2.6% organic matter. Separate plantings for each of the three pots were as follows. Seeds from the U.S. of monochoria (Monochoria vaginalis), sedge, umbrella (small-flower umbrella sedge, Cyperus difformis), bulrush, […] bulrush, Scirpus juncoides), and […] (purple […] coccinea), were planted into one 16-cm pot for each rate. Seeds from the U.S. of flatsedge, rice (rice flatsedge, Cyperus iria), sprangletop, Brdd. (bearded sprangletop, Leptochloa fascicularis), one stand of 9 or 10 water seeded rice seedlings (Rice, W.S. Jap, Oryza sativa cv. 'Japonica-[…]' or Rice, W.S. Ind, 'Indica'), and two stands of 3 or 4 seedlings of rice, transplanted (transplanted rice, Oryza sativa cv. 'Japonica-[…]') were planted into one 16-cm pot for each rate. Seeds from the U.S. of barnyardgrass (Echinochloa crus-galli), […] (common […], Alisma plantago-aquatica), and watergrass, late (late watergrass, Echinochloa oryzicola) were planted into one 16-cm pot for each rate. Plantings were sequential so that crop and weed species were at the 2.0 to 2.5-leaf stage at time of treatment. Potted plants were grown in a greenhouse with day/night temperature settings of 30/27° C., and supplemental balanced lighting was provided to maintain a 16-h photoperiod. Test pots were maintained in the greenhouse until test completion. At time of treatment, test pots were flooded to 3 cm above the soil surface, treated by application of test compounds directly to the paddy water, and then maintained at that water depth for the duration of the test. Effects of treatments on rice and weeds were visually evaluated by comparison to untreated controls after 21 d. Plant response ratings, summarized in Table F, are based on a scale of 0 to 100 where 0 is no effect and 100 is complete control. A dash (-) response means no test result.

Consider `O=C1NCC(c2ccc(F)c(F)c2)C1C(=O)Nc1ccccc1C(F)(F)F` (racemic) [Compound 6], for which the Plant response rating in assay [1] (Postemergence, 16 g ai/ha) stood at 0; in assay [1] (Postemergence, 31 g ai/ha), 0; in assay [1] (Postemergence, 62 g ai/ha), 20; in assay [1] (Postemergence, 125 g ai/ha), 20; in assay [1] (Postemergence, 250 g ai/ha), 25; in assay [1] (Preemergence, 125 g ai/ha) it was 0. The Plant response rating in assay [1] (Preemergence, 250 g ai/ha) turned out to be 0; in assay [2] (Postemergence, 16 g ai/ha), 0; in assay [2] (Postemergence, 31 g ai/ha) it was 0; in assay [2] (Postemergence, 62 g ai/ha), 5; in assay [2] (Postemergence, 125 g ai/ha) it was 5; in assay [2] (Postemergence, 250 g ai/ha), 10. In addition, the Plant response rating in assay [2] (Preemergence, 125 g ai/ha) amounted to 0; in assay [2] (Preemergence, 250 g ai/ha) it was 0. Moreover, the “Plant response rating, Field Violet” value in assay [1] (Preemergence, 62 g ai/ha) is 0; in assay [1] (Preemergence, 16 g ai/ha), 0; in assay [1] (Preemergence, 31 g ai/ha), 0. The “Plant response rating, Blackgrass” value in assay [2] (Preemergence, 62 g ai/ha) is 0; in assay [2] (Preemergence, 16 g ai/ha), 0; in assay [2] (Preemergence, 31 g ai/ha), 0.

`O=C1NCC(c2ccc(F)c(C(F)(F)F)c2)C1C(=O)Nc1cccc(F)c1F` (racemic) [Compound 77]: the “Plant response rating, Field Violet” value is 20 in assay [1] (Preemergence, 62 g ai/ha) and 15 in assay [1] (Preemergence, 31 g ai/ha). For the same compound, the Plant response rating in assay [1] (Preemergence, 125 g ai/ha) is 20; in assay [1] (Preemergence, 250 g ai/ha), 55; in assay [2] (Preemergence, 125 g ai/ha) it was 40; in assay [2] (Preemergence, 250 g ai/ha), 65. The “Plant response rating, Blackgrass” value stood at 25 in assay [2] (Preemergence, 62 g ai/ha) and 10 in assay [2] (Preemergence, 31 g ai/ha).

For the compound `O=C1NCC(c2ccc(F)c(F)c2)C1C(=O)Nc1cccc(F)c1F` (racemic) [Compound 101], the “Plant response rating, Rice, Transplanted” value (from here on “Plant response rating, Rice”) in assay [3] (64 g ai/ha), in assay [3] (125 g ai/ha), in assay [3] (250 g ai/ha) and in assay [3] (500 g ai/ha) was 0 in each case.

Regarding `O=C1NCC(c2cccc(C(F)F)c2)C1C(=O)Nc1ccccc1F` (racemic) [Compound 210], the “Plant response rating, Rice” value in assay [3] (125 g ai/ha), in assay [3] (250 g ai/ha) and in assay [3] (500 g ai/ha) was 0 throughout.

Consider `O=C1NCCC1C(=O)N(c1ccc(F)c(F)c1)c1ccccc1F` (stereo not shown) [Compound 5, N-(3,4-difluorophenyl)-N-(2-fluorophenyl)-2-oxo-3-pyrrolidinecarboxamide], for which the “Plant response rating, Rice” value in assay [3] (125 g ai/ha), in assay [3] (250 g ai/ha), in assay [3] (500 g ai/ha), in assay [3] (1000 g ai/ha) and in assay [3] (2000 g ai/ha) was 0 in each case.

On to `O=C1NCC(c2cc(F)c(F)cc2F)C1C(=O)Nc1cccc(F)c1F` (stereo not shown) [Compound 50], for which the Plant response rating in assay [1] (Postemergence, 16 g ai/ha) is recorded as 0; in assay [1] (Postemergence, 31 g ai/ha) it was 0; in assay [1] (Postemergence, 62 g ai/ha), 0; in assay [1] (Postemergence, 125 g ai/ha) it was 0; in assay [1] (Preemergence, 125 g ai/ha) it was 0; in assay [2] (Postemergence, 16 g ai/ha) it was 0. In addition, the Plant response rating in assay [2] (Postemergence, 31 g ai/ha) is given as 0; in assay [2] (Postemergence, 62 g ai/ha), 0; in assay [2] (Postemergence, 125 g ai/ha) it was 0; in assay [2] (Preemergence, 125 g ai/ha) it was 0. Also, the “Plant response rating, Field Violet” value in assay [1] (Preemergence, 62 g ai/ha) came out at 0; in assay [1] (Preemergence, 16 g ai/ha) it was 0; in assay [1] (Preemergence, 31 g ai/ha), 0. Besides, the “Plant response rating, Blackgrass” value in assay [2] (Preemergence, 62 g ai/ha) was 0; in assay [2] (Preemergence, 16 g ai/ha), 0; in assay [2] (Preemergence, 31 g ai/ha), 0.

Turning to `O=C1NCC(c2ccc(Cl)c(F)c2)C1C(=O)Nc1cccc(F)c1F` (stereo not shown) [Compound 52], the Plant response rating came out at 0 in assay [1] (Postemergence, 16 g ai/ha); 0 in assay [1] (Postemergence, 31 g ai/ha); 0 in assay [1] (Postemergence, 62 g ai/ha); 0 in assay [1] (Postemergence, 125 g ai/ha); 0 in assay [1] (Postemergence, 250 g ai/ha); 0 in assay [2] (Postemergence, 16 g ai/ha). The Plant response rating in assay [2] (Postemergence, 31 g ai/ha) is 0; in assay [2] (Postemergence, 62 g ai/ha), 0; in assay [2] (Postemergence, 125 g ai/ha), 0; in assay [2] (Postemergence, 250 g ai/ha) it was 0; in assay [2] (Preemergence, 125 g ai/ha), 0; in assay [2] (Preemergence, 250 g ai/ha), 0. Besides, the “Plant response rating, Blackgrass” value in assay [2] (Preemergence, 62 g ai/ha) was 0; in assay [2] (Preemergence, 16 g ai/ha), 0; in assay [2] (Preemergence, 31 g ai/ha) it was 0.

In the case of `O=C1NCC(c2ccc(C(F)(F)F)cc2)C1C(=O)Nc1ccccc1F` (stereo not shown) [Compound 231], the Plant response rating turned out to be 20 in assay [1] (Postemergence, 31 g ai/ha); 20 in assay [1] (Postemergence, 62 g ai/ha); 10 in assay [1] (Postemergence, 125 g ai/ha); 25 in assay [1] (Postemergence, 250 g ai/ha); 0 in assay [1] (Preemergence, 250 g ai/ha); 0 in assay [2] (Postemergence, 31 g ai/ha). Moreover, the Plant response rating in assay [2] (Postemergence, 62 g ai/ha) was found to be 10; in assay [2] (Postemergence, 125 g ai/ha), 10; in assay [2] (Postemergence, 250 g ai/ha) it was 20; in assay [2] (Preemergence, 250 g ai/ha) it was 55. The “Plant response rating, Field Violet” value in assay [1] (Preemergence, 62 g ai/ha) is reported as 0; in assay [1] (Preemergence, 125 g ai/ha), 10; in assay [1] (Preemergence, 31 g ai/ha), 0. The “Plant response rating, Blackgrass” value was determined as 0 in assay [2] (Preemergence, 62 g ai/ha); 15 in assay [2] (Preemergence, 125 g ai/ha); 0 in assay [2] (Preemergence, 31 g ai/ha).

Consider `CN1CC(c2ccc(F)c(F)c2)C(C(=O)Nc2cccc(F)c2F)C1=O` (stereo not shown) [Compound 303], for which the “Plant response rating, Rice” value in assay [3] (62 g ai/ha) was found to be 0; in assay [3] (125 g ai/ha) it was 0; in assay [3] (250 g ai/ha), 15; in assay [3] (500 g ai/ha) it was 30.

The record behind these values is patent US10294202B2, “Pyrrolidinones as herbicides” (FMC Corporation, priority 2013, dated 2019).
